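Compound exposure: 48 hours, 5 concentrations, 96-well plates. TGI denotes the concentration required for complete inhibition of growth.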

Some test systems named below: A498 renal; NCI-H226 lung; DU-145 prostate; COLO 205 colon; SK-MEL-5 melanoma; HCC-2998 colon; SW-620 colon; M14 melanoma; UO-31 renal; OVCAR-4 ovarian; MOLT-4 leukemia; ACHN renal; EKVX NSCLC; MDA-MB-435; SNB-75 CNS; SK-MEL-2 melanoma; SF-539 CNS; SR leukemia; PC-3 prostate.
Holding throughout (test): growth of human tumour cells (NCI), 48 h

For the compound `COc1ccc(/C=C2\CN(C)CC3C2=NN(c2ccccc2)C3c2ccc(OC)cc2)cc1` (configuration not stated), the TGI in the experiment on A498 renal, with NCI-H226 lung, in the experiment with DU-145 prostate, with COLO 205 colon, in the experiment with SK-MEL-5 melanoma and with HCC-2998 colon was > 100 µM throughout. In addition, the TGI with SW-620 colon, with M14 melanoma, with UO-31 renal, in the experiment with OVCAR-4 ovarian, in the experiment with MOLT-4 leukemia and in the experiment with ACHN renal was > 100 µM throughout. Besides, the TGI with EKVX NSCLC and in the experiment on MDA-MB-435 was > 100 µM in each case.
Regarding `Cc1ccc(S(=O)(=O)N2CCCSCCN(S(=O)(=O)c3ccc(C)cc3)CCCSCC2)cc1`, the TGI with A498 renal, in the experiment with NCI-H226 lung, with DU-145 prostate, in the experiment on COLO 205 colon, with SNB-75 CNS and in the experiment on SK-MEL-5 melanoma was > 100 µM throughout. Besides, the TGI in the experiment with HCC-2998 colon, in the experiment on SW-620 colon, in the experiment on M14 melanoma, with UO-31 renal, with SK-MEL-2 melanoma and in the experiment on OVCAR-4 ovarian was > 100 µM each time. In addition, the TGI with SF-539 CNS, with MOLT-4 leukemia, with ACHN renal, with EKVX NSCLC and in the experiment with MDA-MB-435 was > 100 µM each time.
Take `CC(C)N(/C(F)=N\C(=O)Nc1ccccc1C(F)(F)F)C(C)C`: the TGI in the experiment on NCI-H226 lung, in the experiment on SR leukemia, in the experiment on COLO 205 colon, in the experiment with SNB-75 CNS, with PC-3 prostate and in the experiment on SK-MEL-5 melanoma was > 100 µM throughout. For the same compound, the TGI is 99 µM in the experiment on HCC-2998 colon; > 100 µM in the experiment on SW-620 colon; > 100 µM in the experiment on M14 melanoma; > 100 µM in the experiment with UO-31 renal; 78.5 µM in the experiment on SK-MEL-2 melanoma; > 100 µM in the experiment on SF-539 CNS. Besides, the TGI in the experiment on ACHN renal and in the experiment on EKVX NSCLC was > 100 µM in each case.
With `O=S(=O)(O)c1ccccc1N=Nc1ccc(N=Nc2c(O)ccc3ccccc23)c(S(=O)(=O)O)c1`, the TGI with NCI-H226 lung, in the experiment on DU-145 prostate, in the experiment on COLO 205 colon, in the experiment with SNB-75 CNS, with PC-3 prostate and in the experiment with SK-MEL-5 melanoma was > 100 µM in each case. The TGI in the experiment on SW-620 colon, with M14 melanoma, with UO-31 renal, with SK-MEL-2 melanoma, in the experiment with OVCAR-4 ovarian and in the experiment on MOLT-4 leukemia was > 100 µM in each case. Further, the TGI with ACHN renal, in the experiment on EKVX NSCLC and with MDA-MB-435 was > 100 µM throughout.
Regarding `O=C1Nc2ccccc2/C1=C\c1c(Cl)nc2n1CCS2`, the TGI was 61.4 µM in the experiment with A498 renal; > 100 µM in the experiment on DU-145 prostate; 38.5 µM in the experiment with COLO 205 colon; 56.8 µM in the experiment on SNB-75 CNS; 80.4 µM in the experiment with PC-3 prostate; 29.4 µM with SK-MEL-5 melanoma. In addition, the TGI was 35.3 µM in the experiment on HCC-2998 colon; > 100 µM in the experiment on SW-620 colon; > 100 µM in the experiment on M14 melanoma; > 100 µM in the experiment with UO-31 renal; 32.5 µM with SK-MEL-2 melanoma; > 100 µM in the experiment with OVCAR-4 ovarian. Further, the TGI was 97.9 µM in the experiment on MOLT-4 leukemia, > 100 µM in the experiment with ACHN renal, > 100 µM with EKVX NSCLC and 43.9 µM in the experiment on MDA-MB-435.
Consider `O=[N+]([O-])c1ccc(O)c(C=NCC2CCCN3CCCCC23)c1` (configuration not stated), for which the TGI is 89.9 µM in the experiment with NCI-H226 lung; > 100 µM with DU-145 prostate; 75.9 µM in the experiment with COLO 205 colon; > 100 µM with SNB-75 CNS; > 100 µM with PC-3 prostate; 69.9 µM in the experiment on SK-MEL-5 melanoma. Further, the TGI is 74.5 µM in the experiment with HCC-2998 colon; 53.2 µM in the experiment on M14 melanoma; > 100 µM in the experiment with UO-31 renal; > 100 µM in the experiment on SF-539 CNS; 89.1 µM in the experiment on ACHN renal; > 100 µM in the experiment with EKVX NSCLC.
With `O=C1C2CC=CCC2C(=O)N1n1c(Cc2ccccc2)n[nH]c1=O` (configuration not stated), the TGI in the experiment with A498 renal, with NCI-H226 lung, in the experiment with SR leukemia, with COLO 205 colon, in the experiment on PC-3 prostate and in the experiment with SK-MEL-5 melanoma was > 100 µM in each case. The TGI in the experiment with HCC-2998 colon, in the experiment on SW-620 colon, in the experiment with M14 melanoma, in the experiment with UO-31 renal, in the experiment on SK-MEL-2 melanoma and with OVCAR-4 ovarian was > 100 µM in each case. Also, the TGI in the experiment with SF-539 CNS, with MOLT-4 leukemia, in the experiment with ACHN renal, in the experiment on EKVX NSCLC and in the experiment with MDA-MB-435 was > 100 µM each time.
For `CC(C)(O)CCc1ccc(O)c2c(=O)c3c(O)c4c(cc3oc12)O[C@H]1OC=C[C@@]41O`, the TGI is 0.162 µM in the experiment on NCI-H226 lung; > 100 µM in the experiment on SR leukemia; 0.378 µM in the experiment with COLO 205 colon; 10.1 µM with SNB-75 CNS; > 35.1 µM with PC-3 prostate; < 0.0176 µM with HCC-2998 colon. In addition, the TGI with SW-620 colon was 27.8 µM; in the experiment with UO-31 renal, 0.414 µM; in the experiment with SK-MEL-2 melanoma, < 0.01 µM; in the experiment with OVCAR-4 ovarian, 0.222 µM; with SF-539 CNS, 6.76 µM; in the experiment with MOLT-4 leukemia, 0.422 µM. Besides, the values for the TGI in the experiment with ACHN renal, with EKVX NSCLC and in the experiment on MDA-MB-435 were < 0.01 µM, > 61.2 µM and < 0.01 µM, respectively.
Turning to `O=C1CCCC2=C1CC1=C(CCCC1=O)N2c1cccc([N+](=O)[O-])c1`, the TGI with A498 renal, in the experiment on NCI-H226 lung, with SR leukemia, with SNB-75 CNS, in the experiment on PC-3 prostate and with SK-MEL-5 melanoma was > 100 µM each time. Further, the TGI with HCC-2998 colon, in the experiment on SW-620 colon, with M14 melanoma, in the experiment on UO-31 renal, in the experiment with OVCAR-4 ovarian and in the experiment with SF-539 CNS was > 100 µM throughout. For the same compound, the TGI in the experiment with MOLT-4 leukemia, in the experiment with ACHN renal and in the experiment on EKVX NSCLC was > 100 µM throughout.
On to `Cc1c(-c2ccc(O)c(O)c2)oc(=O)c2c(O)cccc12`, for which the TGI with A498 renal was 33.1 µM; with DU-145 prostate it was 47.2 µM; in the experiment on COLO 205 colon, 30.1 µM; in the experiment with SNB-75 CNS it was 76 µM; with PC-3 prostate it was 52.1 µM; in the experiment with SK-MEL-5 melanoma it was 24.8 µM. The TGI in the experiment with HCC-2998 colon came to 22.1 µM; in the experiment on SW-620 colon it was 61.2 µM; in the experiment with M14 melanoma it was 20.7 µM; with UO-31 renal, 24.4 µM; in the experiment on SK-MEL-2 melanoma, 28 µM; in the experiment with OVCAR-4 ovarian, 40.4 µM. For the same compound, the TGI is 48.4 µM in the experiment on SF-539 CNS; > 100 µM in the experiment on MOLT-4 leukemia; > 100 µM in the experiment with ACHN renal; > 100 µM in the experiment with EKVX NSCLC; 12.3 µM in the experiment with MDA-MB-435.
`Cc1nnc([C@@]2(C)CC[C@H]3[C@@H](CCC4=CC(=O)CC[C@@]43C)[C@@H]2CC#N)o1`: the TGI with A498 renal, with NCI-H226 lung, in the experiment with SR leukemia, with COLO 205 colon, in the experiment on SNB-75 CNS and in the experiment with PC-3 prostate was > 100 µM each time. The TGI with SK-MEL-5 melanoma, in the experiment with SW-620 colon, in the experiment with M14 melanoma, in the experiment on UO-31 renal, in the experiment on SK-MEL-2 melanoma and in the experiment with OVCAR-4 ovarian was > 100 µM in each case. The TGI in the experiment with SF-539 CNS, in the experiment on MOLT-4 leukemia, with ACHN renal, in the experiment on EKVX NSCLC and with MDA-MB-435 was > 100 µM throughout.
For `NC(C(=O)OC(=O)c1ccccc1)C(=O)OC(=O)c1ccccc1`, the TGI with A498 renal, in the experiment with NCI-H226 lung, with DU-145 prostate, with COLO 205 colon, in the experiment with SNB-75 CNS and in the experiment with PC-3 prostate was > 100 µM in each case. The TGI in the experiment on SK-MEL-5 melanoma, in the experiment on SW-620 colon, with M14 melanoma, with UO-31 renal, in the experiment with SK-MEL-2 melanoma and in the experiment on OVCAR-4 ovarian was > 100 µM throughout. The TGI in the experiment with SF-539 CNS, with MOLT-4 leukemia, in the experiment on ACHN renal, with EKVX NSCLC and in the experiment with MDA-MB-435 was > 100 µM in each case.
In the case of `NC(=O)C1N=NSC1NC(=O)c1ccc([N+](=O)[O-])cc1` (configuration not stated), the TGI in the experiment with NCI-H226 lung was > 100 µM; with DU-145 prostate, > 100 µM; in the experiment with COLO 205 colon, > 100 µM; in the experiment on SNB-75 CNS, > 100 µM; with PC-3 prostate, > 100 µM; with SK-MEL-5 melanoma, 69.8 µM. For the same compound, the TGI in the experiment with HCC-2998 colon was > 100 µM; with SW-620 colon it was > 100 µM; in the experiment with M14 melanoma, > 100 µM; in the experiment on UO-31 renal, > 100 µM; in the experiment on SK-MEL-2 melanoma, 65 µM; with OVCAR-4 ovarian, > 100 µM. Also, the TGI in the experiment with MOLT-4 leukemia, in the experiment on ACHN renal, with EKVX NSCLC and with MDA-MB-435 was > 100 µM throughout.

The values are drawn from PubChem BioAssay (NCI).
